Measurements from ChEMBL document CHEMBL5728348, “1 H-pyrazol-1-yl-thiazoles as inhibitors of lactate dehydrogenase and methods of use thereof” (2021).

assay: Biochemical Assay: Test compounds were placed in a Greiner Bio-One (Monroe, N.C.) 1536-well black solid bottom assay plate. 200 millimolar (mM) Tris HCl, pH 7.4, 100 micromolar (μM) EDTA and 0.01% TWEEN-20, final concentration, was used as the assay buffer. The LDHA reagent was 2 nanomolar (nM) Human LDHA (Meridian Life Science, Inc., Memphis, Tenn.), final concentration, in assay buffer. The substrate reagent was 0.06 mM NADH and 0.2 mM sodium pyruvate, final concentration, in assay buffer. The resazurin/diaphorase coupling reagent was 0.037 mM resazurin and 0.133 milligrams per milliliter (mg/mL) diaphorase, final concentration, in assay buffer. The inhibition of LDHA activity was measured by fluorescence emission.

`N[SH+]([O-])c1ccc(Cc2c(-c3cccc(-c4ccc(Cl)cc4)c3)nn(-c3nc(C(=O)O)cs3)c2CC2CC2)cc1F` (stereo not given) and `COc1ccc(-c2cccc(-c3nn(-c4nc(C(=O)O)cs4)c(CC4CC4)c3Cc3ccc([SH+](N)[O-])c(F)c3)c2)cc1C` (stereo not given) cannot be ordered by IC50: under 100 nM for the first, under 100 nM for the second.

`N[S+](=O)([O-])c1ccc(Cc2c(-c3ccc(F)c(-c4ccc5c(c4)CCC5)c3)nn(-c3nc(C(=O)O)cs3)c2CC2CC2)cc1F` and `N[S+](=O)([O-])c1ccc(Cc2c(-c3ccc(F)c(-c4ccc(F)c(F)c4)c3)nn(-c3nc(C(=O)O)cs3)c2CC2CC2)cc1F` cannot be ordered by IC50: under 100 nM for the first, under 100 nM for the second.

Compared with `Cc1ccc(C#Cc2cccc(-c3nn(-c4nc(CO)cs4)c(CC4CC4)c3Cc3ccc([SH+](N)[O-])c(F)c3)c2)s1` (stereo not given), `N[SH+]([O-])c1ccc(Cc2c(-c3ccc(F)c(NC(=O)c4ccccc4)c3)nn(-c3nc(C(=O)O)cs3)c2CC2CC2)cc1F` (stereo not given) is lower in IC50: over 57000 nM for the first, under 100 nM for the second. The second is the more potent here.

`N[S+](=O)([O-])c1ccc(Cc2c(-c3ccc(F)c(C4=CCC(C(F)(F)F)CC4)c3)nn(-c3nc(C(=O)O)cs3)c2CC2CC2)cc1F` (stereo not given) and `N[S+](=O)([O-])c1ccc(Cc2c(-c3ccc(F)c(C4=CCC(F)(F)CC4)c3)nn(-c3nc(C(=O)O)cs3)c2CC2CC2)cc1F` cannot be ordered by IC50: under 100 nM for the first, under 100 nM for the second.

`N[S+](=O)([O-])c1ccc(Cc2c(-c3ccc(F)c(C4=CCC5(CC4)CC5)c3)nn(-c3nc(C(=O)O)cs3)c2CC2CC2)cc1F` showed an IC50 of under 100 nM.

With `N[SH+]([O-])c1ccc(Cc2c(-c3cccc(-c4ccc(C5CC5)c(F)c4)c3)nn(-c3nc(C(=O)O)cs3)c2CC2CC2)cc1F` (stereo not given) the IC50 was “in the range around 29000 nM”.
